Where two headings read alike, the source gives them in different places. Bounds are passed on as bounds.

The target in one assay is T1, hSERT (Homo sapiens, UniProt P31645).
T1 construct: expressed in transfected cells; host or cells: HEK293
Nature of the assay: Inhibition of [125I]RTI-55 binding to hSERT in HEK293 cell membranes. How it is done: (§1) Unknowns are weighed and dissolved in DMSO to make a 10 mM stock solution. An initial dilution to 50 μM in assay buffer for binding, or to 1 mM in water for uptake, is made. Subsequent dilutions are made with assay buffer supplemented with DMSO, maintaining a final concentration of 0.1% DMSO. Pipetting is conducted using a Biomek 2000 robotic workstation.
(§2) Inhibition of Radioligand Binding of [125I]RTI-55 to hDAT, hSERT or hNET in Colonla Cells
(§3) Cell preparation: HEK293 cells expressing hDAT, hSERT or hNET inserts are grown to 80% confluence on 150 mm diameter tissue culture dishes and serve as the tissue source. Cell membranes are prepared as follows. Medium is poured off the plate, and the plate is washed with 10 ml of calcium- and magnesium-free phospate-buffered saline. Lysis buffer (10 ml; 2 mM HEPES with 1 mm EDTA) is added. After 10 min, cells are scraped from plates, poured into centrifuge tubes, and centrifuged […] for 20 min. The supernatant fluid is removed, and the pellet is resuspended in 12-32 ml of 0.32 m sucrose using a Ploytron at setting 7 for 10 sec. The resuspension volume depends on the density of binding sites within a cell line and is chosen to reflect binding of 10% or less to the total radioactivity.
(§4) Assay conditions: Each assay tube contains 50 μl of membrane preparation (about 10-15 μg of protein), 25 μl of unknown compound used to define non-specific binding, or buffer(Krebs-HEPES, pH 7.4;122 mM NaCl, 2.5 mM CaCl2, 1.2 mM MgSO4, 10 μM pargyline, 100 μM tropolone,0.2% glucose and 0.2% ascorbic acid, buffered with 25 mM HEPES) […] of [125I]RTI-55 (40-80 pM final concentration) and additional buffer sufficient to bring up the final volume to 250 μl. Membranes are preincubated with unknowns for 10 min prior to the addition of [125I]RTI-55. The assay tubes are incubated to 25° C. for 90 min. Binding is terminated by filtration over GF/F filters using Tomtec 96-well cell harvester. Fliter are washed for six seconds with ice cold saline. Scintillation fluid is added to each square and radioactivity remaining on the filter is determined using Wallac μ- or beta plate reader. Specific binding is defined as the difference in binding observed in the presence and absence of 5 μM mazindol (HEK-hDAT and HEK-hNET) or […] imipramine (HEK-hSERT). Two or three independent competition experiments are conducted with duplicate determinations. GraphPAD Prism is used to analyze the ensuing data, with IC50 values converted to Ki values using the Cheng-Prusoff equation (Ki=IC50/(1+([125I]RTI-55/KdRTI55))).

Another assay concerns the target T2, hNET (Homo sapiens, UniProt P23975).
T2 construct: expressed in transfected cells; host or cells: HEK293
As to the kind of experiment: Inhibition of [125I]RTI-55 binding to hNET in HEK293 cell membranes. The note with it: [125I]RTI-55 displacement, HEK-hNET membranes; IC50 converted to Ki (Cheng-Prusoff); read-out: Transporter NET. The protocol: as §1, §2, §3, §4

Another assay addresses T3, hDAT (Homo sapiens, UniProt Q01959).
T3 construct: expressed in transfected cells; host or cells: HEK293
As to the kind of experiment: Inhibition of [125I]RTI-55 binding to hDAT in HEK293 cell membranes. The conditions noted are these: [125I]RTI-55 displacement, HEK-hDAT membranes; IC50 converted to Ki (Cheng-Prusoff); read-out: Transporter DAT. The protocol: as §1, §2, §3, §4

Setting [1] is: [125I]RTI-55 displacement, HEK-hSERT membranes, IC50 converted to Ki (Cheng-Prusoff), read-out: Transporter SERT.

T3 sequence (Q01959 whole entry): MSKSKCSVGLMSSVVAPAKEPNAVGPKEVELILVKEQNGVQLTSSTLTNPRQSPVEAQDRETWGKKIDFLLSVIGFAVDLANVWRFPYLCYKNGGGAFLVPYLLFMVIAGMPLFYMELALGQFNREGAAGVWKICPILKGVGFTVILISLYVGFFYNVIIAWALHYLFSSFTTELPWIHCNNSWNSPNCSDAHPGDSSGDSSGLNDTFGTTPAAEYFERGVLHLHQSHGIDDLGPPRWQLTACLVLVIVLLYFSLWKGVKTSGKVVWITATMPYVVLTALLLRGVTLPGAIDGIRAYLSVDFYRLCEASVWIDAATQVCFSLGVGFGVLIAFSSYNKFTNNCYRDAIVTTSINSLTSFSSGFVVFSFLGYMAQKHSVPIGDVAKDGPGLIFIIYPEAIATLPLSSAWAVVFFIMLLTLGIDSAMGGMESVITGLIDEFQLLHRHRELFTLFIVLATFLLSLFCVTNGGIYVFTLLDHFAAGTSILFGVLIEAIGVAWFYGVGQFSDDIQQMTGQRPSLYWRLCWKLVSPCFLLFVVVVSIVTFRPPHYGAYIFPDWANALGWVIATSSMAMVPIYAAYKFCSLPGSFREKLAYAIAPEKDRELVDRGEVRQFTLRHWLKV
T1 sequence (P31645 whole entry): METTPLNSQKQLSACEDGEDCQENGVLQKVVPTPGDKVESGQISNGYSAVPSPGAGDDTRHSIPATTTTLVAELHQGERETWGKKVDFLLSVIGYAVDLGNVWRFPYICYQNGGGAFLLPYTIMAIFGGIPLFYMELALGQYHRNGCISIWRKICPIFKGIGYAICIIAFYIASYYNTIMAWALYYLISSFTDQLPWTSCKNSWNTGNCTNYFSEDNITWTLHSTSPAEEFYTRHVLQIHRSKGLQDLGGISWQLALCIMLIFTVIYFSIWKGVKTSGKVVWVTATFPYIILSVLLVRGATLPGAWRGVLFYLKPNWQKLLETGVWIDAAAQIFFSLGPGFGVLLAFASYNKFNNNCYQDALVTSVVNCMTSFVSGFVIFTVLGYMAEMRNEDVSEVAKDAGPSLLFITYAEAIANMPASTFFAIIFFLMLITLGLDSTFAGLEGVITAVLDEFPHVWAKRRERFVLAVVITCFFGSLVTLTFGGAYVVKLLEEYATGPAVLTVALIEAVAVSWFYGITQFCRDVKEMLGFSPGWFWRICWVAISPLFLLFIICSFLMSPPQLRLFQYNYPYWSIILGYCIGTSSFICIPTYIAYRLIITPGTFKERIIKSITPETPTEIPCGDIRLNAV
T2 sequence (P23975 whole entry): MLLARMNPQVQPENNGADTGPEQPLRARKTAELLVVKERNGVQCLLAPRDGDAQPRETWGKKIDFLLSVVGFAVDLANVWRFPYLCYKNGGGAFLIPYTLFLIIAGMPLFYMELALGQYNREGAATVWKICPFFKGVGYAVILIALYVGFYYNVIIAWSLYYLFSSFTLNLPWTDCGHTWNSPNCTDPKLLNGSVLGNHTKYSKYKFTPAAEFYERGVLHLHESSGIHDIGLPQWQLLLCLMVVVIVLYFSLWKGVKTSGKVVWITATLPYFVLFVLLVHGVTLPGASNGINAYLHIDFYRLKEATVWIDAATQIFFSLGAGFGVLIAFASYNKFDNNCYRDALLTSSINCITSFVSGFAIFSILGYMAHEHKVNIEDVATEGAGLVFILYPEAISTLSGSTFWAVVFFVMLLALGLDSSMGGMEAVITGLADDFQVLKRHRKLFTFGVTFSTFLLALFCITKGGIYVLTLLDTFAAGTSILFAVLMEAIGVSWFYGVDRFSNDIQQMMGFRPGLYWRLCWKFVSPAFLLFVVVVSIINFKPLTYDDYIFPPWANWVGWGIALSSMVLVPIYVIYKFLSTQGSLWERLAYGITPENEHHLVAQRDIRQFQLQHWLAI

As for `CNC[C@@]1(c2ccc(Cl)c(Cl)c2)C[C@@H]1c1ccc(Cl)c(Cl)c1` [compound 32695], the figures for the Ki on hSERT (setting [1]), at hNET and on hDAT were 0.172 µM, 2.9 µM and 0.73 µM, respectively.
As to `CNC[C@@]1(c2ccccc2)C[C@@H]1c1ccc(Cl)c(Cl)c1` [32,219], the Ki at hSERT (setting [1]) stood at 0.114 µM; at hNET it was 1.87 µM; on hDAT it was 0.218 µM.
For the molecule `CNC[C@]1(c2ccccc2)C[C@H]1c1ccc(Cl)c(Cl)c1` [32,220], the Ki amounted to 0.045 µM at hSERT, 1.46 µM on hNET and 1.45 µM at hDAT.
As for `CNC[C@]1(c2ccc(Cl)c(Cl)c2)C[C@H]1c1ccc(Cl)c(Cl)c1` [compound 32694], the values for the Ki on hSERT (setting [1]), on hNET and on hDAT were 1.53 µM, 3.7 µM and 1.26 µM, respectively.
`CNC[C@@]1(c2ccc(Cl)c(Cl)c2)C[C@@H]1c1ccccc1` [32,221]: the Ki on hSERT (setting [1]) amounted to 1.04 µM; at hNET, 3.13 µM; on hDAT, 1.38 µM.
Turning to `CNC[C@@]1(c2ccccc2)C[C@@H]1c1ccccc1` [compound 32697], the results for the Ki at hSERT (setting [1]), at hNET and on hDAT were greater than 10 µM, 3.9 µM and greater than 5.3 µM, respectively.
As for `CNC[C@]1(c2ccc(Cl)c(Cl)c2)C[C@H]1c1ccccc1` [32,222], the Ki was 4.6 µM on hSERT (setting [1]), greater than 10 µM on hNET and 6.6 µM at hDAT.
For the molecule `CNC[C@]1(c2ccccc2)C[C@H]1c1ccc2ccccc2c1` [compound 32698], the Ki on hSERT was determined as 0.014 µM; at hNET, 1.27 µM; on hDAT, 1.6 µM.
Regarding `CNC[C@]1(c2ccccc2)C[C@H]1c1ccccc1` [compound 32696], the results for the Ki at hSERT (setting [1]), on hNET and at hDAT were greater than 7.3 µM, 4.3 µM and 4.65 µM, respectively.

For the origin of these results see patent US7501453B2, “Cyclopropanes with central nervous system activity” (The Research Foundation of State University of New York, priority 2006, dated 2009).
